Reference: the NIST ThermoML archive (doi:10.1021/je2010209)
Numbers after ± are expanded uncertainties.

Assay: xn = mol fraction of the nth substance listed
Conditions: 101 kPa, Liquid; for speed of sound: Sing-around technique in a fixed-path interferometer; for mass density: Vibrating tube method

COCCOCCO [2-(2-methoxyethoxy)ethanol] + CCCCn1cc[n+](C)c1.F[B-](F)(F)F
Conditions | mass density, 288.15 K [kg/m3] | mass density, 293.15 K [kg/m3] | mass density, 298.15 K [kg/m3] | speed of sound, 288.15 K [m/s] | speed of sound, 293.15 K [m/s] | speed of sound, 298.15 K [m/s] | speed of sound, 303.15 K [m/s]
x2 = 0 | 1024.6 ± 0.89 | 1020.2 ± 0.88 | 1015.79 ± 0.87 | 1451 ± 5 | 1434 ± 5 | 1416 ± 5 | 1399 ± 5
x2 = 0.0308 | 1035.12 ± 0.91 | 1030.69 ± 0.9 | 1026.51 ± 0.89 | 1461 ± 5 | 1445 ± 5 | 1428 ± 5 | 1411 ± 5
x2 = 0.1053 | 1059.04 ± 0.96 | 1054.73 ± 0.95 | 1050.61 ± 0.94 | 1490 ± 5 | 1473 ± 5 | 1457 ± 5 | 1441 ± 5
x2 = 0.2065 | 1086.98 ± 1 | 1082.85 ± 1 | 1078.49 ± 1 | 1514 ± 5 | 1499 ± 5 | 1483 ± 5 | 1468 ± 5
x2 = 0.3137 | 1110.84 ± 1.1 | 1106.71 ± 1.1 | 1102.51 ± 1.1 | 1533 ± 5 | 1517 ± 5 | 1503 ± 5 | 1489 ± 5
x2 = 0.4002 | 1126.77 ± 1.1 | 1122.56 ± 1.1 | 1118.58 ± 1.1 | 1544 ± 5 | 1531 ± 5 | 1518 ± 5 | 1504 ± 5
x2 = 0.5035 | 1143.12 ± 1.1 | 1138.99 ± 1.1 | 1135.22 ± 1.1 | 1559 ± 5 | 1546 ± 5 | 1533 ± 5 | 1519 ± 5
x2 = 0.6083 | 1158.14 ± 1.2 | 1154.16 ± 1.2 | 1150.52 ± 1.2 | 1568 ± 5 | 1555 ± 5 | 1543 ± 5 | 1530 ± 5
x2 = 0.7023 | 1170.82 ± 1.2 | 1167.07 ± 1.2 | 1163.46 ± 1.2 | 1575 ± 5 | 1563 ± 5 | 1551 ± 5 | 1539 ± 5
x2 = 0.8291 | 1187.12 ± 1.2 | 1183.25 ± 1.2 | 1180 ± 1.2 | 1580 ± 5 | 1572 ± 5 | 1560 ± 5 | 1546 ± 5
x2 = 0.9381 | 1199.91 ± 1.3 | 1196.01 ± 1.3 | 1192.92 ± 1.3 | 1583 ± 5 | 1574 ± 5 | 1563 ± 5 | 1552 ± 5
